Assay results reported in patent US20250170090A1, “METHOD FOR PREVENTING OR TREATING DISEASE OR DISORDER ASSOCIATED WITH ANTINEOPLASTIC AGENT” (ONQUALITY PHARMACEUTICALS CHINA LTD., priority 2022, published 2025).

Assays:
[1] = test system: hand-foot syndrome caused by anti-tumor agents; experiment: Treatment of established hand-foot syndrome caused by anti-tumor agents in rats (Table 4); assay type: in vivo
Procedure: After the rats (about 200 g) were fed and adapted for one week, the rats were divided into groups of 10 rats for gavage administration experiment. The anti-tumor agent was dissolved in a mixed solution of Cremophor EL:ethanol=1:1, and diluted with PBS to the required concentration (diluted about 3 times with PBS solution) before gavage. […] Specific experimental procedures followed those outlined in the prevention experiment. […] Table 4 lists the animal experiments using various anti-tumor agents and NO-NSAID ointment, as well as the corresponding experimental results (where the value in the control rate column=the incidence rate of hand-foot syndrome in the blank group−the incidence rate of hand-foot syndrome in the treatment group).

[2] = test system: chemotherapy-induced hand-foot syndrome; experiment: Prevention of chemotherapy-induced hand-foot syndrome in rat models (Table 5); assay type: in vivo, SD rats
Procedure: Rat animal model was constructed. After several days, the rats develop hand-foot syndrome in their paws. After one week of acclimatization (about 200 g), the SD rats are divided into groups of 10 rats each, followed by gavage administration experiment. The chemotherapy drugs were dissolved, and each rat was given a gavage dose of 1 mL/100 g. After gavage, the rats were fixed with a fixed cylinder. NO-NSAID ointment was applied to the paws of the rats in the medication group, and blank ointment was applied to the paws of the rats in the blank group (as blank control). […] Table 5 lists the animal experimental combinations of chemotherapy drugs and NO-NSAID ointment, as well as the corresponding experimental results (where the value in the control rate column=the incidence rate of hand-foot syndrome in the blank group−the incidence rate of hand-foot syndrome in the treatment group).

[3] = test system: human oral keratinocytes (HOK); experiment: CCK-8 cell viability: alleviation of proliferative toxicity of anti-tumor agents on HOK (Table 8-2); assay type: cell-based; conditions: NO-NSAID 100 μM
Procedure: (§1) Experiments were conducted using various epithelial cells: Examples 47-51 used human immortalized keratinocytes (HaCaT) with corresponding results in Table 8-1; Examples 52-56 used human oral keratinocytes (HOK) with results in Table 8-2; Examples 57-61 used gastric epithelial cells (GES-1) with results in Table 8-3; Examples 62-66 used human intestinal epithelial cells (FHs 74 Int) with results in Table 8-4.
(§2) The cultured cells were digested the suspended, counted, and seed into a 96-well plate with 5,000-10,000 cells per well. The wells are divided into the following groups: blank control group, anti-tumor agent group, anti-tumor agent+NO-NSAID group, anti-tumor agent solvent group, NO-NSAID solvent control group. Wherein each well of each group contained a basic medium, and the final liquid volume contained in each well was about 100 μL. The grouping situation was as follows: • 1) Blank control group: no solution was added except normally replacing the medium; • 2) Anti-tumor agent group: added the anti-tumor agent solution (the final concentration was shown in Table 8-1 to Table 8-4, the solvent of the anti-tumor agent solution was DMSO); • 3) Anti-tumor agent+NO-NSAID group: added the anti-tumor agent solution and the NO-NSAID solution (the final concentrations of anti-tumor agent and NO-NSAID were shown in Table 8-1 to Table 8-4, and according to the solubility of NO-NSAID, the solvent of NO-NSAID solution was selected as ethanol or sterile water, and minor volume differences in each group were adjusted by added the corresponding solvent); • 4) Anti-tumor agent solvent group: an equal volume of DMSO as contained in the corresponding anti-tumor agent solution in Group 2) was added; • 5) NO-NSAID control group: the same volume and type of solvent (for example, ethanol or sterile water) corresponding to the NO-NSAID contained in group 3) was added.
(§3) The anti-tumor agent solvent group was not involved in data processing and was only used as a reference for evaluating experimental system error. The NO-NSAID solvent control group was used for data correction to eliminate the influence of the solvent on the results.
(§4) After culturing for 24-48 hours, the Cell Counting Kit-8 (CCK-8) detection kit (C0037, Shanghai Beyotime Biotechnology Co., Ltd., Beyotime Biotechnology) was used to determine the cell viability. This allows for the calculation of the proliferative toxicity of anti-tumor agent on cell and the mitigating effect of NO-NSAID on proliferative toxicity. The results were statistically analyzed and plotted using GraphPad Prism 6.0 software and t test.

[4] = test system: human immortalized keratinocytes (HaCaT); experiment: CCK-8 cell viability: alleviation of proliferative toxicity of anti-tumor agents on HaCaT (Table 8-1); assay type: cell-based; conditions: NO-NSAID 100 μM, percentage increase in viable cells vs anti-tumor agent alone
Procedure: as §1, §2, §3, §4

[5] = test system: human intestinal epithelial cells (FHs 74 Int); experiment: CCK-8 cell viability: alleviation of proliferative toxicity of anti-tumor agents on FHs 74 Int (Table 8-4); assay type: cell-based; conditions: NO-NSAID 100 μM
Procedure: as §1, §2, §3, §4

[6] = test system: gastric epithelial cells (GES-1); experiment: CCK-8 cell viability: alleviation of proliferative toxicity of anti-tumor agents on GES-1 (Table 8-3); assay type: cell-based, human; conditions: NO-NSAID 100 μM
Procedure: as §1, §2, §3, §4

## CC(C(=O)OCCCO[N+](=O)[O-])c1ccc(-c2ccccc2)c(F)c1 (stereo not drawn) [Compound A1]
[1]; Apatinib 105 mg/kg once every two days, ointment 2.50% wt, Days 7
  Response rate: 28.57%
[1]; Cabozantinib 50 mg/kg once every two days, ointment 1% wt, Days 11
  Response rate: 28.57%
[1]; Encorafenib 80 mg/kg once every two days, ointment 2.50% wt, Days 9
  Response rate: 14.29%
[1]; Fruquintinib 40 mg/kg once every two days, ointment 2.50% wt, Days 8
  Response rate: 42.86%
[1]; Lenvatinib 65 mg/kg once a day, ointment 2.50% wt, Days 9
  Response rate: 40.00%
[1]; Olmutinib 100 mg/kg once every two days, ointment 2.50% wt, Days 12
  Response rate: 42.86%
[1]; Regorafenib 90 mg/kg once every two days, ointment 0.50% wt, Days 8
  Response rate: 14.29%
[1]; Sorafenib 80 mg/kg once every two days, ointment 2.50% wt, Days 5
  Response rate: 28.57%
[1]; Sunitinib 120 mg/kg once every two days, ointment 2.50% wt, Days 9
  Response rate: 28.57%
[2]; Capecitabine 4000 mg/kg once a day, ointment 1% wt, Days 40
  Control rate: 37.50%
[2]; Capecitabine 4000 mg/kg once a day, ointment 3% wt, Days 40
  Control rate: 44.44%
[2]; Doxorubicin 7 mg/kg once every three days, ointment 1% wt, Days 30
  Control rate: 50.00%
[3]; Afatinib (10 μM)
  Response rate % (average): 41%
[3]; Cabozantinib (5 μM)
  Response rate % (average): 23%
[3]; Dabrafenib (10 μM)
  Response rate % (average): 2%
[3]; Everolimus (5 μM)
  Response rate % (average): −2%
[3]; Infigratinib (15 μM)
  Response rate % (average): 1%
[3]; Lapatinib (5 μM)
  Response rate % (average): 12%
[3]; Lenvatinib (10 μM)
  Response rate % (average): 38%
[3]; Olmutinib (10 μM)
  Response rate % (average): 40%
[3]; Regorafenib (5 μM)
  Response rate % (average): 22%
[3]; Selumetinib (5 μM)
  Response rate % (average): 15%
[3]; Sorafenib (5 μM)
  Response rate % (average): 22%
[3]; Sunitinib (5 μM)
  Response rate % (average): 9%
[4]; Afatinib (10 μM)
  Response rate % (average): 38%
[4]; Cabozantinib (5 μM)
  Response rate % (average): 36%
[4]; Dabrafenib (10 μM)
  Response rate % (average): 2%
[4]; Everolimus (5 μM)
  Response rate % (average): −3%
[4]; Infigratinib (15 μM)
  Response rate % (average): −6%
[4]; Lapatinib (5 μM)
  Response rate % (average): 33%
[4]; Lenvatinib (10 μM)
  Response rate % (average): 24%
[4]; Olmutinib (10 μM)
  Response rate % (average): 42%
[4]; Regorafenib (5 μM)
  Response rate % (average): 41%
[4]; Selumetinib (5 μM)
  Response rate % (average): 19%
[4]; Sorafenib (5 μM)
  Response rate % (average): 25%
[4]; Sunitinib (5 μM)
  Response rate % (average): 15%
[5]; Afatinib (10 μM)
  Response rate % (average): 39%
[5]; Cabozantinib (5 μM)
  Response rate % (average): 27%
[5]; Dabrafenib (10 μM)
  Response rate % (average): −9%
[5]; Everolimus (5 μM)
  Response rate % (average): 19%
[5]; Infigratinib (15 μM)
  Response rate % (average): 0%
[5]; Lapatinib (5 μM)
  Response rate % (average): 35%
[5]; Lenvatinib (10 μM)
  Response rate % (average): 43%
[5]; Olmutinib (10 μM)
  Response rate % (average): 34%
[5]; Regorafenib (5 μM)
  Response rate % (average): 37%
[5]; Selumetinib (5 μM)
  Response rate % (average): 29%
[5]; Sorafenib (5 μM)
  Response rate % (average): 17%
[5]; Sunitinib (5 μM)
  Response rate % (average): 21%
[6]; Afatinib (10 μM)
  Response rate % (average): 24%
[6]; Cabozantinib (5 μM)
  Response rate % (average): 28%
[6]; Dabrafenib (10 μM)
  Response rate % (average): 6%
[6]; Everolimus (5 μM)
  Response rate % (average): 24%
[6]; Infigratinib (15 μM)
  Response rate % (average): 23%
[6]; Lapatinib (5 μM)
  Response rate % (average): 31%
[6]; Lenvatinib (10 μM)
  Response rate % (average): 41%
[6]; Olmutinib (10 μM)
  Response rate % (average): 38%
[6]; Regorafenib (5 μM)
  Response rate % (average): 34%
[6]; Selumetinib (5 μM)
  Response rate % (average): 18%
[6]; Sorafenib (5 μM)
  Response rate % (average): 15%
[6]; Sunitinib (5 μM)
  Response rate % (average): −2%
